These results are taken from paper PMC11300463, “Structure basis for sugar specificity of gustatory receptors in insects” (Cell Discovery, 2024).

Common to all, as to format: cell-based
The target of assay [1] is T1, DmGr64a (Drosophila melanogaster, UniProt P83293).
T1 construct: gene Gr64a; expressed in HEK293 cells for function; purified homotetramer for cryo-EM; residues Y234, W260, F333, L338, L339, F342, E399, F403, I420, V438, L439, Q441
T1 sequence (P83293 1-456): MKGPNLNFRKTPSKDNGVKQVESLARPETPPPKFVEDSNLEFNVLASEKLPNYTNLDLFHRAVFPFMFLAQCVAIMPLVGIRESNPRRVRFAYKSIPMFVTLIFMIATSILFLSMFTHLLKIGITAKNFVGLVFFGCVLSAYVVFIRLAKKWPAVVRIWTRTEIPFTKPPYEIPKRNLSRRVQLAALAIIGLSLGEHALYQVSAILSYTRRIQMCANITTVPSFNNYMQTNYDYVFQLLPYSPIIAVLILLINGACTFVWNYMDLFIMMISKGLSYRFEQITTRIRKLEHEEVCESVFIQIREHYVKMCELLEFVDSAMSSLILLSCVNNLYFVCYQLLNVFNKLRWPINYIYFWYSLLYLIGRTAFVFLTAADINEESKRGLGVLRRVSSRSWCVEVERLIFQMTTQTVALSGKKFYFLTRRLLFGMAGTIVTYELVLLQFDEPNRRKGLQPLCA
The assay is described as follows: calcium imaging, HEK293 cells. The note with it: activation.

The target in assay [2] is T2, DmoGr43a (Drosophila mojavensis, UniProt B4KNE2).
T2 construct: gene Dmoj\GI20824; expressed in HEK293 cells for function; purified homotetramer for cryo-EM; printed residues R70, Y312, F313, F315, L386, I418, L419, I420, F422
T2 sequence (B4KNE2 1-427): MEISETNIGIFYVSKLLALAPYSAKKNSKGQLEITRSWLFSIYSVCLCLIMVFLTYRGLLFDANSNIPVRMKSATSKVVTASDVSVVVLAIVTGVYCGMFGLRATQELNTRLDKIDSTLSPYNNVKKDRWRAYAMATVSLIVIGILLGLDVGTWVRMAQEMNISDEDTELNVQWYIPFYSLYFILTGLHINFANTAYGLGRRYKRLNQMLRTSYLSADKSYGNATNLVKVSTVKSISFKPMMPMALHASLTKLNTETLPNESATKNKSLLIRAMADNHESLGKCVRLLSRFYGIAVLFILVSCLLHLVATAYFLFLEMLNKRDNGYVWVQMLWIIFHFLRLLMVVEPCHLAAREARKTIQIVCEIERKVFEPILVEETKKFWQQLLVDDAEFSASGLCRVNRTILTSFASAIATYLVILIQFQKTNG
The assay is described as follows: electrophysiology, HEK293 cells. Conditions: activation; also calcium imaging; cryo-EM structure of complex.

The target of assay [3] is T1, DmGr64a. The assay is described as follows: calcium imaging, HEK293 cells.

Molecules are shown by their SMILES.

Turning to `OCC1(O)OC[C@@H](O)[C@@H](O)[C@@H]1O` (some centres unmarked) [fructose], the “calcium imaging, HEK293 cells” value in assay [1] is “several sugars including fructose, trehalose, sucrose and maltose were able to activate DmGr64a”. In addition, the concentration giving a half-maximal response (EC50) – broadly, the concentration giving half of the maximal effect – in assay [2] was 43 ± 4.69 mM.

`OC[C@H]1O[C@H](O[C@H]2[C@H](O)[C@@H](O)C(O)O[C@@H]2CO)[C@H](O)[C@@H](O)[C@@H]1O` (some centres unmarked) [maltose]: the “calcium imaging, HEK293 cells” value in assay [1] was “several sugars including fructose, trehalose, sucrose and maltose were able to activate DmGr64a”.

For `OC[C@H]1O[C@@](CO)(O[C@H]2O[C@H](CO)[C@@H](O)[C@H](O)[C@H]2O)[C@@H](O)[C@@H]1O` [sucrose], the EC50 in assay [3] is approximately 1.77 mM.

On to `OC[C@H]1O[C@H](O[C@H]2O[C@H](CO)[C@@H](O)[C@H](O)[C@H]2O)[C@H](O)[C@@H](O)[C@@H]1O` [trehalose], for which the “calcium imaging, HEK293 cells” value in assay [1] is “several sugars including fructose, trehalose, sucrose and maltose were able to activate DmGr64a”.
